Data published in publication PMC10957983, “The binding and mechanism of a positive allosteric modulator of Kv3 channels” (Nature Communications, 2024).

Key:
Kv3.1 = biological target: T1, Kv3.1 (Homo sapiens, UniProt P48547); assay: cryo-EM structure of the complex ([…] Å); supported by TEVC of Kv3.[…] and binding-site mutants
T1 construct: gene KCNC1; Full-length human Kv3.1 (isoform A)
T1 sequence (P48547 1-511): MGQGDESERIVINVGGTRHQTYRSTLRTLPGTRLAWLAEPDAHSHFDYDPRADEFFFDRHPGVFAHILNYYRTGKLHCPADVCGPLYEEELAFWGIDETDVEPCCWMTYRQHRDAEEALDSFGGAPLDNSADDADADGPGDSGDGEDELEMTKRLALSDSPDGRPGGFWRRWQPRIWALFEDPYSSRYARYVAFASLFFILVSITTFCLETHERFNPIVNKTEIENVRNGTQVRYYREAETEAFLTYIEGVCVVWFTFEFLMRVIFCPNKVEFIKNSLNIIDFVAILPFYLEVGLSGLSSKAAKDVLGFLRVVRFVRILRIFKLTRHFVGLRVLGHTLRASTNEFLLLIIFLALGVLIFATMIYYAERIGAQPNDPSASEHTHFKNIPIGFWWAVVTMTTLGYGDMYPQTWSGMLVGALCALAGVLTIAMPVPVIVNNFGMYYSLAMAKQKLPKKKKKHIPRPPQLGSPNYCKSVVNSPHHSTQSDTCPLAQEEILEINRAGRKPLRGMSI

Kv3.2 = biological target: T2, Kv3.2 (Homo sapiens, UniProt Q96PR1); assay: TEVC in Xenopus oocytes, concentration dependence of ΔV0.[…]; type: cell-based
T2 construct: gene KCNC2
T2 sequence (Q96PR1 1-638): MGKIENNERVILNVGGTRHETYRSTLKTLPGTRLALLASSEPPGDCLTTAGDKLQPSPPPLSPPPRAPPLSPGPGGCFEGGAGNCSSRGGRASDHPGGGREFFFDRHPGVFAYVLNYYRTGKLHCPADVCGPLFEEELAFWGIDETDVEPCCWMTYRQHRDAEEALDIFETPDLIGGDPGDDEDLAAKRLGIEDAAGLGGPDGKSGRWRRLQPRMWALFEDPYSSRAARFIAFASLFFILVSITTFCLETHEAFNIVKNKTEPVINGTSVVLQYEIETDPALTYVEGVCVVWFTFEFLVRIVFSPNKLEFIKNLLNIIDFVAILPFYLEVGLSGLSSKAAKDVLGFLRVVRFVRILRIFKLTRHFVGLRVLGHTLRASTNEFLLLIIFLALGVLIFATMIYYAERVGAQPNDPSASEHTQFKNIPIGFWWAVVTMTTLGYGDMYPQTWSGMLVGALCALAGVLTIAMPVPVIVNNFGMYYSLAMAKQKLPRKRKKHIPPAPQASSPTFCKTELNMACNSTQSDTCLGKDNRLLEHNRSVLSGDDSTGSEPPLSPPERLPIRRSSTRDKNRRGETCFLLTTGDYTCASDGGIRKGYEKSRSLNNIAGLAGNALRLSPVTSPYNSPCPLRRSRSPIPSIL

## CC[C@H]1NC(=O)N(c2ccc(Oc3cccc4c3C3(CC3)CO4)nc2)C1=O [AUT5, (5 R)-5-ethyl-3-[6-(spiro[1-benzofuran-3,1’-cyclopropan]-4-yloxy)-3-pyridinyl]-2,4-imidazolidinedione]
Kv3.1
  cryo-EM structure of the complex (2.5 Å); supported by TEVC of Kv3.1 and binding: A non-protein in the electron density map consistent with AUT5 is found in a cavity between S4 and S5 helices
Kv3.2
  EC50: 3.2 µM
